Data on 21 compounds can be found in patent US10506809B2, “Herbicidal combination comprising saflufenacil and glufosinate” (BASF SE, priority 2015, dated 2019).

Like-named read-outs stand apart in the source and are kept apart here.

Holding throughout (assay type): in vivo
One test relates to Amaranthus retroflexus. The test is described as follows: Greenhouse post-emergence herbicidal activity on AMARE (pig weed). From the text:
(§1) The test plants were first grown to a height of 3 to 20 cm, depending on the plant habit, and only then treated (post-emergence treatment). Here, the herbicidal combinations were suspended, emulsified or dissolved in water as distribution medium and afterwards applied by spraying, using finely distributing nozzles.
(§2) The herbicides A, B and C were used as commercially available formulations and introduced to the spray liquor with the amount of solvent system used for applying the active compound. In the examples, the solvent used was water.
(§3) The test period extended over 20 days. During this time, the plants were tended, and their response to the treatments with active compounds was evaluated.
(§4) The evaluation for the damage caused by the chemical compositions was carried out using a scale from 0 to 100%, compared to the untreated control plants. Here, 0 means no damage and 100 means complete destruction of the plants.
(§5) The plants used in the greenhouse experiments belonged to the following species:
(§6) The value E, which is to be expected if the activity of the individual compounds is just additive, was calculated using the method of S. R. Colby (1967) “Calculating synergistic and antagonistic responses of herbicide combinations”, Weeds 15, p. 22 ff. For two component mixtures the value E was calculated by the following formula E=X+Y−(X·Y/100) where • X=effect in percent using a mixture of herbicides A and B at application rates a and b, respectively; • Y=effect in percent using herbicide C at an application rate c; • E=expected effect (in %) of A+B+C at application rates a+b+c.
(§7) If the value observed in this manner is higher than the value E calculated according to Colby, a synergistic effect is present.
(§8) Tables 1 to 21 relate to the herbicidal activities of the binary mixture of herbicides A and B, of herbicide C individually and of their combinations in post-emergence application assessed 20 days after treatment (20 DAT).

For another test, the system named is Brachiaria platyphylla. The test is described as follows: Greenhouse post-emergence herbicidal activity on BRAPP (broadleaf signalgrass).
From the text: as §1, §2
The test period extended over 20 days. During this time, the plants were tended, and their response to the treatments with active compounds was evaluated. […]
The value E, which is to be expected if the activity of the individual compounds is just additive, was calculated using the method of S. R. Colby (1967) “Calculating synergistic and antagonistic responses of herbicide combinations”, Weeds 15, p. […] For two component mixtures the value E was calculated by the following formula E=X+Y−(X·Y/100) where • X=effect in percent using a mixture of herbicides A and B at application rates a and b, respectively; • Y=effect in percent using herbicide C at an application rate c; • E=expected effect (in %) of A+B+C at application rates a+b+c.
If the value observed in this manner is higher than the value E calculated according to Colby, a synergistic effect is present. […]

For another test, the system named is Setaria viridis. The test is described as follows: Greenhouse post-emergence herbicidal activity on SETVI (green foxtail).
From the text: as §1, §2, §3, §4, §5, §6, §7, §8

The test system of a further test is Digitaria sanguinalis. The test is described as follows: Greenhouse post-emergence herbicidal activity on DIGSA (large crabgrass).
From the text: as §1, §2, §3, §4, §5, §6, §7, §8

The subject of another test is Abutilon theophrasti. The test is described as follows: Greenhouse post-emergence herbicidal activity on ABUTH (velvetleaf).
From the text: as §1, §2, §3, §4, §5, §6, §7, §8

Another test deals with Brachiaria decumbens. The test is described as follows: Greenhouse post-emergence herbicidal activity on BRADC (Surinam grass).
From the text: as §1, §2, §3, §4, §5, §6, §7, §8

A further test has as its system Solanum nigrum. The test is described as follows: Greenhouse post-emergence herbicidal activity on SOLNI (black nightshade).
From the text: as §1, §2, §3, §4, §5, §6, §7, §8

The test system of the next test is Avena fatua. The test is described as follows: Greenhouse post-emergence herbicidal activity on AVEFA (common wild oat).
From the text: as §1, §2, §3, §4, §5, §6, §7, §8

Another test deals with Echinochloa crus-galli. The test is described as follows: Greenhouse post-emergence herbicidal activity on ECHCG (barnyard grass).
From the text: as §1, §2, §3, §4, §5, §6, §7, §8

[1] abbreviates: solo C 2,4-D LV ester 6.25 g ai/ha.
The mark [2] stands for this setting: solo C S-metolachlor 150.0 g ai/ha.
Where [3] appears, read: Abutilon theophrasti, 480 h, ABUTH, solo C 20.0 g ai/ha, 20 DAT, read-out: % activity 20 DAT.

Consider `CCCCC(CC)COC(=O)COc1ccc(Cl)cc1Cl` (stereo not drawn) [2,4-D LV ester, 2,4-D], for which the “% activity 20 DAT” value is given as 45% in the test with Amaranthus retroflexus (setting [1]) and 10% in the test with Brachiaria platyphylla (setting [1]).

Turning to `CCc1cccc(C)c1N(C(=O)CCl)[C@@H](C)COC` [S-metolachlor, S-Metolachlor], the “% activity 20 DAT” value in the test with Setaria viridis (solo C S-metolachlor 300.0 g ai/ha, SETVI) was 60%; with Digitaria sanguinalis (setting [2]) it was 0%; with Abutilon theophrasti (solo C S-metolachlor 150.0 g ai/ha, ABUTH), 10%; in the test with Brachiaria decumbens (setting [2]), 0%.

Regarding `CCOCN(C(=O)CCl)c1c(C)cccc1CC` [acetochlor, Acetochlor], the inhibition at 12.5 g/ha in the test on Abutilon theophrasti (Abutilon theophrasti, 480 h, solo C acetochlor 12.5 g ai/ha, ABUTH, read-out: % activity 20 DAT) came out at 10%.

In the case of `CCNc1nc(Cl)nc(NC(C)C)n1` [atrazin, Atrazin], the inhibition at 6.25 g/ha in the test with Solanum nigrum (Solanum nigrum, 480 h, solo C atrazin 6.25 g ai/ha, read-out: % activity 20 DAT) came to 35%.

On to `CS(=O)(=O)c1ccc(C(=O)C2=C(Sc3ccccc3)C3CCC(C3)C2=O)c(Cl)c1` (stereo not drawn) [benzobicyclon, Benzobicyclon], for which the “% activity 20 DAT” value was determined as 60% with Digitaria sanguinalis (solo C 20.0 g ai/ha, 20 DAT); 10% in the test with Avena fatua (solo C 10.0 g ai/ha); 60% with Amaranthus retroflexus (solo C 20.0 g ai/ha, 20 DAT); 90% in the test with Abutilon theophrasti (ABUTH, solo C 20.0 g ai/ha, 20 DAT).

Take `COc1c(Cl)ccc(Cl)c1C(=O)O` [dicamba, Dicamba]: the inhibition at 8.75 g/ha in the test with Setaria viridis (Setaria viridis, 480 h, read-out: % activity 20 DAT) turned out to be 15%. Also, in the test with Abutilon theophrasti (Abutilon theophrasti, 480 h, solo C dicamba 17.5 g ai/ha, ABUTH, read-out: % activity 20 DAT), the inhibition at 17.5 g/ha turned out to be 70%.

`CCOc1nc(F)cc2nc(S(=O)(=O)Nc3c(Cl)cccc3Cl)nn12` [diclosulam, Diclosulam]: the “% activity 20 DAT” value amounted to 35% in the test with Setaria viridis (solo C diclosulam 0.5 g ai/ha, SETVI) and 25% in the test with Solanum nigrum (solo C diclosulam 0.25 g ai/ha).

As for `COC[C@H](C)N(C(=O)CCl)c1c(C)csc1C` [dimethenamid-P, Dimethenamid-P], in the test with Solanum nigrum (solo C dimethenamid-P 18.75 g ai/ha), the “% activity 20 DAT” value was 10%.

`C#CCN1C(=O)COc2cc(F)c(N3C(=O)C4=C(CCCC4)C3=O)cc21` [flumioxazin, Flumioxazin]: in the test on Setaria viridis (Setaria viridis, 480 h, solo C flumioxazin 0.25 g ai/ha, SETVI, read-out: % activity 20 DAT), the inhibition at […] is 60%. Besides, the inhibition at 0.125 g/ha in the test on Abutilon theophrasti (Abutilon theophrasti, 480 h, solo C flumioxazin 0.125 g ai/ha, ABUTH, read-out: % activity 20 DAT) was 80%.

For the compound `Nc1c(Cl)c(F)nc(OCC(=O)O)c1Cl` [fluroxypyr, Fluroxypyr], the “% activity 20 DAT” value in the test with Avena fatua (solo C 10.0 g ai/ha) was 0%. In addition, the pest or weed control at 20 g/ha with Abutilon theophrasti (setting [3]) turned out to be 50%.

Consider `CS(=O)(=O)c1cc(C(F)(F)F)ccc1C(=O)c1cnoc1C1CC1` [isoxaflutole, Isoxaflutole], for which the inhibition at 0.5 g/ha with Amaranthus retroflexus (Amaranthus retroflexus, 480 h, solo C isoxaflutole 0.5 g ai/ha, read-out: % activity 20 DAT) was 55%. In addition, the inhibition at 1 g/ha in the test with Brachiaria platyphylla (Urochloa platyphylla, 480 h, solo C isoxaflutole 1.0 g ai/ha, read-out: % activity 20 DAT) was 25%.

For the compound `CS(=O)(=O)c1ccc(C(=O)C2C(=O)CCCC2=O)c([N+](=O)[O-])c1` [mesotrione, Mesotrione], the inhibition at […] with Setaria viridis (Setaria viridis, 480 h, solo C mesotrione 2.5 g ai/ha, SETVI, read-out: % activity 20 DAT) was found to be 25%. For the same compound, in the test with Solanum nigrum (Solanum nigrum, 480 h, solo C mesotrione 1.25 g ai/ha, read-out: % activity 20 DAT), the inhibition at 1.25 g/ha amounted to 85%.

As for `CCC(CC)Nc1c([N+](=O)[O-])cc(C)c(C)c1[N+](=O)[O-]` [pendimethalin, Pendimethalin], the inhibition at 150 g/ha in the test with Setaria viridis (Setaria viridis, 480 h, solo C pendimethalin 150.0 g ai/ha, SETVI, read-out: % activity 20 DAT) was determined as 25%. Besides, in the test on Amaranthus retroflexus (Amaranthus retroflexus, 480 h, solo C pendimethalin 75.0 g ai/ha, read-out: % activity 20 DAT), the inhibition at 75 g/ha worked out at 55%.

Regarding `Cc1nn(C)c(O)c1C(=O)c1ccc(C(F)(F)F)cc1S(C)(=O)=O` [pyrasulfotole, Pyrasulfotole], the “% activity 20 DAT” value in the test with Digitaria sanguinalis (solo C 5.0 g ai/ha, 20 DAT) came out at 35%; in the test on Echinochloa crus-galli (solo C 2.5 g ai/ha), 80%; in the test with Brachiaria decumbens (solo C 5.0 g ai/ha, 20 DAT) it was 0%.

Take `Cc1ccc(S(=O)(=O)Oc2c(C(=O)c3ccc(Cl)cc3Cl)c(C)nn2C)cc1` [pyrazolynate, Pyrazolynate]: the “% activity 20 DAT” value is 0% in the test on Digitaria sanguinalis (solo C 10.0 g ai/ha, 20 DAT) and 0% with Brachiaria decumbens (solo C 10.0 g ai/ha, 20 DAT). The pest or weed control at 20 g/ha with Abutilon theophrasti (setting [3]) came to 25%.

For `O=C(O)c1c(Cl)ccc2cc(Cl)cnc12` [quinclorac, Quinclorac], the inhibition at 5 g/ha is 0% in the test on Avena fatua (Avena fatua, 480 h, solo C quinclorac 5.0 g ai/ha, read-out: % activity 20 DAT) and 0% with Echinochloa crus-galli (Echinochloa crus-galli, 480 h, solo C quinclorac 5.0 g ai/ha, read-out: % activity 20 DAT).

Consider `Cc1nn(-c2cc(NS(C)(=O)=O)c(Cl)cc2Cl)c(=O)n1C(F)F` [salfentrazone, Sulfentrazone], for which the inhibition at 1.5 g/ha in the test on Setaria viridis (Setaria viridis, 480 h, solo C salfentrazone 1.5 g ai/ha, SETVI, read-out: % activity 20 DAT) is 30%; in the test with Abutilon theophrasti (Abutilon theophrasti, 480 h, solo C salfentrazone 1.5 g ai/ha, ABUTH, read-out: % activity 20 DAT) it was 40%.

In the case of `CS(=O)(=O)c1ccc(C(=O)C2C(=O)CCCC2=O)c(Cl)c1` [sulcotrione, Sulcotrione], the pest or weed control at 20 g/ha with Abutilon theophrasti (Abutilon theophrasti, 480 h, read-out: % activity 20 DAT) was 85%. Besides, the “% activity 20 DAT” value in the test with Echinochloa crus-galli (solo C 2.5 g ai/ha) came to 30%; with Brachiaria decumbens (solo C 5.0 g ai/ha, 20 DAT), 0%.

Regarding `CS(=O)(=O)c1ccc(C(=O)C2C(=O)CCCC2=O)c(Cl)c1COCC(F)(F)F` [tembotrione, Tembotrione], the inhibition at 1 g/ha in the test with Setaria viridis (Setaria viridis, 480 h, solo C tembotrione 1.0 g ai/ha, SETVI, read-out: % activity 20 DAT) worked out at 0%; with Avena fatua (Avena fatua, 480 h, solo C tembotrione 1.0 g ai/ha, read-out: % activity 20 DAT) it was 10%; in the test on Abutilon theophrasti (Abutilon theophrasti, 480 h, solo C tembotrione 1.0 g ai/ha, ABUTH, read-out: % activity 20 DAT) it was 10%. Further, the inhibition at 0.5 g/ha with Amaranthus retroflexus (Amaranthus retroflexus, 480 h, solo C tembotrione 0.5 g ai/ha, read-out: % activity 20 DAT) came out at 80%.

In the case of `Cc1c(C(=O)c2cnn(C)c2O)ccc(S(C)(=O)=O)c1C1=NOCC1` [topramezone, Topramezone], the “% activity 20 DAT” value in the test on Digitaria sanguinalis (solo C 0.25 g ai/ha, 20 DAT) is listed as 10%; in the test on Avena fatua (solo C 0.25 g ai/ha) it was 10%; in the test with Abutilon theophrasti (ABUTH, solo C 0.25 g ai/ha, 20 DAT), 0%; with Echinochloa crus-galli (solo C 0.25 g ai/ha), 20%.

As for Bicyclopyrone, the “% activity 20 DAT” value in the test with Setaria viridis (SETVI, solo C 1.0 g ai/ha, 20 DAT) was found to be 0%; with Avena fatua (solo C 2.0 g ai/ha), 0%; in the test on Echinochloa crus-galli (solo C 20.0 g ai/ha), 75%.
